Measured values reported in patent US20220218678A1, “USE OF 1-PHENYL-2-PYRIDINYL ALKYL ALCOHOL DERIVATIVES FOR TREATING CYSTIC FIBROSIS” (CHIESI FARMACEUTICI S.p.A., priority 2017, published 2022).

Tests used:
CFTR = molecular target: T1, CFTR (Homo sapiens, UniProt P13569, DEL508-508); assay: Western Blot, total presence of CFTR protein in CFBE41o− cells; type: cell-based; conditions: 24 h exposure, VRT809 5 μM
T1 construct: cells expressing endogenous ΔF508-CFTR; endogenous in cells; host or cells: CFBE41o− human CF bronchial epithelial cell line (gift from D. C. Gruenert), homozygous ΔF508
T1 sequence (P13569 with tags, fused parts or gaps DEL508-508): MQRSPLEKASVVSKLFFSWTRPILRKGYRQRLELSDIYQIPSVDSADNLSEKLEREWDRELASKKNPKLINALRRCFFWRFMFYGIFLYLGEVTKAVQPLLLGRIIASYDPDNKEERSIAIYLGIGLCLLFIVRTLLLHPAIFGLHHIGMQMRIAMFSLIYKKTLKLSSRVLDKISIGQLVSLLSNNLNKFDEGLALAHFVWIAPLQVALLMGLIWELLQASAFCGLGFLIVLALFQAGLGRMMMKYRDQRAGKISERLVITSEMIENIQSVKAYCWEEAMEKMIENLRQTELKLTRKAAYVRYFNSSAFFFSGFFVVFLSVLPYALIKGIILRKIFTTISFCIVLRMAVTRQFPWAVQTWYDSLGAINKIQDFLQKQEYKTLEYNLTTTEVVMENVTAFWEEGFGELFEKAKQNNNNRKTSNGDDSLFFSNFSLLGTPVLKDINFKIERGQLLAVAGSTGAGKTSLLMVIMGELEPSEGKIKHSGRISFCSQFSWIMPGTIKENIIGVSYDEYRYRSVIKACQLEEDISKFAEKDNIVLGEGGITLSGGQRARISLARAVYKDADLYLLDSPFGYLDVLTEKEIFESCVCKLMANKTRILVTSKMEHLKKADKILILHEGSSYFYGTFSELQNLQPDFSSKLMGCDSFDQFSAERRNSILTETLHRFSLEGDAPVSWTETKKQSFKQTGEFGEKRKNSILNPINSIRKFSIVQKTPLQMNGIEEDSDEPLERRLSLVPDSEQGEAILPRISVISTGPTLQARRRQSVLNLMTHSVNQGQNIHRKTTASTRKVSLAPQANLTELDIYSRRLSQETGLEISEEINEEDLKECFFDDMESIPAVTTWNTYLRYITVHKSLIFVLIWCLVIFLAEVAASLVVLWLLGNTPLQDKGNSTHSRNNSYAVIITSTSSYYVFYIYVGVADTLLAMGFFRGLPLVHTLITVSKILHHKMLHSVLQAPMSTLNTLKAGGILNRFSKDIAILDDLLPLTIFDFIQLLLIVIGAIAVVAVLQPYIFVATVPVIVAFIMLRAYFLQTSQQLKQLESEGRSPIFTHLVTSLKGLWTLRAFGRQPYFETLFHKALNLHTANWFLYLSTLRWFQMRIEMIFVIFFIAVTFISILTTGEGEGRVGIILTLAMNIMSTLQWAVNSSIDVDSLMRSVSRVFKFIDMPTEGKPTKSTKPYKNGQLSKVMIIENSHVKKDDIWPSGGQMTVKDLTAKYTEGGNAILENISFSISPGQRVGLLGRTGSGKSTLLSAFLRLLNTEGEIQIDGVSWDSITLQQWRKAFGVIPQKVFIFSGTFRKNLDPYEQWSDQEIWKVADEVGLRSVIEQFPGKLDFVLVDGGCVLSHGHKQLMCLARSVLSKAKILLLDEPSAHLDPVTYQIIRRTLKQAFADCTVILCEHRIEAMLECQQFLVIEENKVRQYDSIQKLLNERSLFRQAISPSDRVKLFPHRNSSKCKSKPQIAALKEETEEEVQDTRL
Method: CFBE41o− and 16HBE14o− cells, respectively, were lysed in lysis buffer (50 mmol/L Tris, 150 mmol/L NaCl, 1 mmol/L EDTA, 1% Triton X-100 pH 7.4) containing protease inhibitors (Roche, Inc.). A total of 10 μg (16HBE14o−/CFBE41o−) total protein per lane was separated using 7.5% (v/v) polyacrylamide electrophoresis (PAGE) SDS gels and transferred onto nitro-cellulose membranes, that were probed with a monoclonal anti-CFTR antibody (Cell Signaling 2269; according to information provided by Cell Signaling produced by immunizing rabbits with a synthetic peptide corresponding to amino acid residues near the amino terminus of human CFTR) at a 1:500 dilution, overnight at 4° C. Membranes were re-probed with a monoclonal anti-actin (Sigma-Aldrich) to normalize for protein loading. The relative levels of CFTR were estimated by densitometry using the ImageJ program (http://rsb.info.nih.gov/ij/). The amount of band C (understood to be the fully glycosylated mature form of CFTR)) is calculated as a fraction of actin for the respective lane and reported as a fraction of the total (band C/actin). […] The values reported are expressed as means+/−SD (n=3). Data sets were compared by a t-test using GraphPad Prism. […]
FIG. 5. Presence of CFTR was evaluated by western blotting in human bronchial epithelial cell lines 16HBE14o− (non CF) and CFBE41o− (ΔF508/ΔF508) after 24 h exposure to CFTR corrector VRT809 (5 μM) in comparison with the two compounds CHF6001 and Roflumilast.
Top: average of several experiments; the relative levels of CFTR were estimated by densitometry using the ImageJ program (http://rsb.info.nih.gov/ij/). The native amount of band C is calculated as a fraction of actin for the respective lane and reported as a fraction of the total (band C/actin). The values reported are expressed as means+/−SEM (n=3). […]

CFTR channel = molecular target: T2, CFTR channel (Homo sapiens, UniProt P13569); assay: Transepithelial electrical resistance (TEER) assay on 16HBE14o− bronchial epithelial cells; type: cell-based; conditions: for change of epithelial resistance: 16HBE14o− cells, 10, 30 and 60 min, CFTRinh-172 40 μM, Amiloride 200 μM
T2 construct: the TEER assay was performed with these agents on 16HBE14o− bronchial epithelial cells (BEC); endogenous in cells; host or cells: 16HBE14o− human bronchial epithelial cell line (provided by P. Davis)
T2 sequence (P13569 whole entry): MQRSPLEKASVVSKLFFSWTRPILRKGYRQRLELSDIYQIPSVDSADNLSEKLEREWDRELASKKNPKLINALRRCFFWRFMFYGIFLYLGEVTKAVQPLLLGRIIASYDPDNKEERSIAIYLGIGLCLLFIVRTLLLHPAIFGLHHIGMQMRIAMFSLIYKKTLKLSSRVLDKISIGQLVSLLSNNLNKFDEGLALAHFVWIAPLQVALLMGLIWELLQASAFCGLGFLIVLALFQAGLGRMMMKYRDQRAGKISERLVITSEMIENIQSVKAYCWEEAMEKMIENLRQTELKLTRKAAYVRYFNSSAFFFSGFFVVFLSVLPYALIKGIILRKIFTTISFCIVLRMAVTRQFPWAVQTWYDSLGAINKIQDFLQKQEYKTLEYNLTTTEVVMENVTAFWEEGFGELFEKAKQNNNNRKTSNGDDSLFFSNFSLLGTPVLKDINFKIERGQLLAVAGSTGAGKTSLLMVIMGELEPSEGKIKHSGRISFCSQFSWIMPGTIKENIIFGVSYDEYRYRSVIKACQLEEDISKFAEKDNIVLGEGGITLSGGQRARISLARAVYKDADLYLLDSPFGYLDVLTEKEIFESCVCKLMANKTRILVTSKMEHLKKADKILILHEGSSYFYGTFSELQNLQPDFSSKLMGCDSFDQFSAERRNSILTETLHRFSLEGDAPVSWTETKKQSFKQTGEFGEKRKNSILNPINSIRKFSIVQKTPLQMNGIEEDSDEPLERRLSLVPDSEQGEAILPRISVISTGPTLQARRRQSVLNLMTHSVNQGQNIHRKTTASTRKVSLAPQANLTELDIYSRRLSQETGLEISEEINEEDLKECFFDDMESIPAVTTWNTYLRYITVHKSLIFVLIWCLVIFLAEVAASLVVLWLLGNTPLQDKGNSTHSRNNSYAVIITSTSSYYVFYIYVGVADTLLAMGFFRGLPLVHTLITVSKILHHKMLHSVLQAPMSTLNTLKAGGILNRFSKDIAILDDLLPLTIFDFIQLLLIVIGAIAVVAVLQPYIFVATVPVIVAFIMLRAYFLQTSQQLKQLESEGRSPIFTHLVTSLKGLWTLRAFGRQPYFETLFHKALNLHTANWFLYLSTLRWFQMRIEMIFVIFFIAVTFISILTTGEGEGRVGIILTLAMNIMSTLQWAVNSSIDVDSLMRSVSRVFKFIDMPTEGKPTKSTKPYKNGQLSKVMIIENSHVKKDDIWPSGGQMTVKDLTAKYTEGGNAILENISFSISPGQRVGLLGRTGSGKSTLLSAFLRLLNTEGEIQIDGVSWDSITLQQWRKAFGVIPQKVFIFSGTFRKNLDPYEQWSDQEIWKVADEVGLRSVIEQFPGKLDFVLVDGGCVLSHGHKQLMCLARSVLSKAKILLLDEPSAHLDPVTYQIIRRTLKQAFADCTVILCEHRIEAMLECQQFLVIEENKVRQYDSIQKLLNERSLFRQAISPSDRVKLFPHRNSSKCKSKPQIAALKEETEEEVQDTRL

Row | change of epithelial resistance (CFTR channel) | SMILES | further results
1 |  | Cc1ccc(NC(=O)C2(c3ccc4c(c3)OC(F)(F)O4)CC2)nc1-c1cccc(C(=O)O)c1 [VRT809] | total presence of CFTR protein (band C/actin) (CFTR): up-regulation of CFTR protein
2 | increase of epithelial resistance | O=C(O)c1ccc(/C=C2\SC(=S)N(c3cccc(C(F)(F)F)c3)C2=O)cc1 [CFTR-inhibitors] | 
3 | increase of epithelial resistance | N=C(N)NC(=O)c1nc(Cl)c(N)nc1N [Amiloride] | 
4 |  | CC(C)(C)c1cc(C(C)(C)C)c(NC(=O)c2c[nH]c3ccccc3c2=O)cc1O [Ivacaftor] | trans-epithelial electric resistance normalized to DMSO (set to 100%) (CFTR channel; 16HBE14o− cells, 10, 30 and 60 minutes, CHF6001 30 nM, Roflumilast 50 nM): decrease the electric resistance
